In patent US20170102398A1, “PREDICTING AND REDUCING COGNITIVE DECLINE BASED ON GSK-3 LEVELS” (HUMANETICS CORPORATION, priority 2014, published 2017):

Tests used:
[1] = subjects with insulin resistance, dosed daily with 20 mg/kg for 28 days; cited from earlier work
rats = assay: acute toxicity studies in rats; assay type: in vivo, rat
Experimental: (§1) Additional studies of D-pinitol's safety and efficacy included mutagenicity (AMES) tests, which were negative. […] In a phase I safety and pharmacokinetic study of D-pinitol in AD subjects, the time to peak plasma levels was about 90 minutes after administration, and the elimination half-life (t1/2) was 10 hours.

[2] = phase I safety and pharmacokinetic study in AD subjects; assay type: in vivo, human
Experimental: as §1

solubility in water = assay type: physicochemical
Excerpt: In some embodiments, the D-pinitol can be a component of a dietary supplement or a medical food (e.g., in combination with an edible oil), or a food for special dietary use. Medical foods are, by definition, formulated to be consumed or administered enterally under the supervision of a physician or other medical professional. The manufacture of medical foods typically is done in compliance with FDA Good Manufacturing Practices (GMP) requirements. The term “food for special dietary use” is defined by 21 C.F.R. §105.3, as applied to food for humans, as meaning • particular (as distinguished from general) uses of food, as follows: • (i) Uses for supplying particular dietary needs which exist by reason of a physical, physiological, pathological or other condition, including but not limited to the conditions of diseases, convalescence, pregnancy, lactation, allergic hypersensitivity to food, underweight, and overweight; • (ii) Uses for supplying particular dietary needs which exist by reason of age, including but not limited to the ages of infancy and childhood; • (iii) Uses for supplementing or fortifying the ordinary or usual diet with any vitamin, mineral, or other dietary property. Any such particular use of a food is a special dietary use, regardless of whether such food also purports to be or is represented for general use. […]

[3] = mutagenicity (AMES) tests
Experimental: as §1

For `CO[C@H]1[C@H](O)[C@@H](O)[C@@H](O)[C@H](O)[C@@H]1O` [D-pinitol, 3-O-methyl-D-chiro-inositol], the “increase in plasma D-pinitol concentration as compared to baseline” value [1] is given as 48 fold, the LD50 (rats) is given as greater than 2000 mg/kg and the “elimination half-life (t1/2)” value [2] is given as 10 h. The “time to peak plasma levels” value ([2]; after administration) was “about 90 minutes”, the solubility in water (solubility in water) was “soluble in water” and the “mutagenicity (AMES) tests” value [3] was “negative”.
